Ends that are not written are not given here.
Legend:
[1] = tested on: U2OS cells; assay: Immunogenic cell death markers (HMGB1, ATP release) in U2OS cells; format: cell-based
Experimental: ((A) U2OS cells were left untreated or exposed to increasing concentrations of RT39 for 3 h. Extracellular HMGB1 was then measured in the culture supernatant by an ELISA assay. Data are means±s.e.m. (n=3). (B) U2OS cells were left untreated or exposed to increasing concentrations of RT39 for 3 h. Extracellular ATP was then measured in the culture supernatant using an ATP-bioluminescence assay. Data are means±s.e.m. (n=3).
(§1) Release of lactate dehydrogenase (LDH) and ATP in the culture medium were assessed with the CytoTox 96 Non-Radioactive Cytotoxicity Assay and Enliten ATP Assay, respectively (Promega, Madison, WI, USA). HMGB1 release in the culture medium was assessed with the HMGB1 ELISA kit (IBL International, Hamburg, Germany).

[2] = tested on: normal spleen cells; assay: Electron microscopy ultrastructural analysis, normal spleen cells; format: cell-based, mouse; settings: normal spleen cells exposed to RT53 (data not shown)
Experimental: Samples were fixed in 3% glutaraldehyde in phosphate buffer, pH 7.4 for 1 hour, washed, post-fixed with 1% osmium tetroxide in 0.1 M phosphate buffer and then gradually dehydrated in 70, 90 and 100% ethanol. After 10 min in a 1:2 mixture of epoxy propane and epoxy resin and 10 min in epon, samples were embedded in epoxy resin and polymerized at 60° C. for 24 h. After polymerisation, ultrathin sections of 90 nm were cut with an ultra-microtome (Reichert ultracut S), stained with uranyl acetate and Reynold's lead and observed with a transmission electron microscope (JEOL 1011). Acquisition was performed with a Gatan Orius 1000 CCD camera.
To test the antileukemic properties of RT53, we first exposed human all-trans retinoic acid (ATRA)-sensitive (NB4) and ATRA-resistant (UF-1) acute promyelocytic leukemia (APL) cells as well as mouse APL spleen blast cells derived from hMRP8-PML-RARA transgenic mice9 to increasing concentrations of RT53.

[3] = Organ toxicity in peptide-treated APL mice; format: in vivo, FVB/N mice; settings: either treatment schedule (data not shown)
Experimental: APL blasts (provided by Drs. M. Bishop and S. Kogan, UCSF, USA) origin from the spleen of mice bearing the human PML-RARA cDNA construct driven by a myeloid linage specific promoter (hMRP8) in the FVB/N inbred strain of mice. For amplification, cells (1×105 or 1×106) were suspended in PBS and transplanted by intravenous (i.v) tail injection (200 uL) into female syngeneic recipient mice (5-6 weeks old). Establishment of leukemia was assessed by a decrease in blood platelet counts approx. 3 weeks after graft. Spleen cells from a primary recipient were collected, washed, re-suspended in PBS and injected (10^4 cells/mouse; 200 uL) into the tail veins of male FVB/N mice (7-8 weeks old) for experiments. For direct treatment experiments, mice were treated daily or every other day (i.p) with normal saline, RT53 or RT39 at 2.4 mg/kg in normal saline starting from day 10 or day 20 for a total of 7 injections.
To explore the in vivo therapeutic potential of RT53 as a treatment of acute leukemia, we used a well-characterized preclinical APL model bearing the human PML-RARA oncogene which mimics human APL, both in its characteristics and its response to conventional therapeutic drugs such as ATRA and arsenic trioxide^9, 10. In this model, 100% of the syngeneic mice (FVB/N) transplanted with 104 primary recipients' spleen blasts developed an APL and succumbed within 30 days (FIG. 1C).

[4] = tested on: spleen cells from healthy mice; format: cell-based, mouse; settings: up to the highest concentration tested, 20 h
Experimental: FIG. 1: RT53 treatment increases APL mice survival. (A) The indicated cells were left untreated or exposed to increasing concentrations of RT53 for 20 h. Cell death induced by peptide treatment was measured by lactate dehydrogenase (LDH) release. Data are means±s.e.m. (n=3). (B) APL spleen cells were exposed to 5 μM of RT53 in the presence or absence of 50 μM zVAD-fmk or 50 μM Necrostatin-1 (Nec-1) for 3 h. Necrotic cell death was monitored by lactate dehydrogenase (LDH) release from cells into the culture medium. The obtained values were normalized to those of the maximum LDH released (completely lysed) control. Data are means±s.e.m. (n=3). (C) 104 APL blasts were inoculated intravenously (i.v.) into FVB/N mice at day zero. […] Survival curves were analyzed with the Mantel-Cox test. […] Survival curves were analyzed with the Mantel-Cox test.
as §1, with “Germany). […]” for “Germany).”

[5] = U2OS cells, increasing concentrations of RT39, 3 h

Sequence	extracellular ATP release (ATP-bioluminescence) [1, 5]	extracellular HMGB1 release (ELISA) [1, 5]	calreticulin exposure ([1]; stated in figure title only, cells not given)	cellular integrity by ultrastructural analysis [2]	organ toxicity (macroscopic or microscopic) [3]	cell death by LDH release in normal cells [4]
RQIKIWFQNRRMKWKKLQYFARGLQVYIRQLRLALQGKT (Synthetic Fusion protein RT39) [fusion of penetratin with AAC-11 leucine-zipper derived peptide (377-399)]	triggers calreticulin exposure as well as the release of HMGB1 and ATP	triggers calreticulin exposure as well as the release of HMGB1 and ATP	triggers calreticulin exposure	–	–	–
RQIKIWFQNRRMKWKKAKLNAEKLKDFKIRLQYFARGLQVYIRQLRLALQGKT [RT53]	–	–	–	No changes in cellular integrity or ruptured cells could be detected	No organ toxicity	no cell death was detected
